Source: US20240408214A1, “NANOPARTICULATE MONOBENZONE FOR TREATING MELANOMA” (Northwestern University, priority 2021, published 2024)

Key:
[1] = tested on: TRP-1+ melanocytes in C57BL/6 skin; assay: Detection of TRP-1+ melanocytes in topically treated mouse skin (FIG. 2); type: in vivo; conditions: 1.5 M topical for 6 weeks
Description: FIG. 2. Melanocytes are undetectable in mouse skin topically treated with MBEH. TRP-1^+ melanocytes (arrows) are detected in control animals but not in C57BL/6 skin treated with 1.5 M MBEH for 6 weeks.

B16 melanoma cells = assay: cells; conditions: Mus musculus, B16, 24 h, read-out: half-maximum cytotoxicity (IC50) concentration
Description: FIG. 8. […] Free MBEH or lauroyl-MBEH-loaded liposomes were added to B16 melanoma cells in culture. After 24 h, the viability among the remaining cells was measured at different nanoparticle concentrations.

B16-F10 tumors = assay: CD8 T cell infiltration in B16-F10 tumors of mice pretreated topically (FIG. 6); type: in vivo, mouse; conditions: mice pretreated topically with 1.5 M MBEH vs without; n=3, p<0.01
[2] = tested on: B16-F10 mouse melanoma cells; assay: Tumor volumes in mice pretreated topically and challenged with B16-F10 cells (FIG. 1); type: in vivo; conditions: 1.5 M topical for 3 weeks before challenge with 5×10^5 B16-F10 cells; p<0.05
[3] = tested on: Transfected HEK cells and B16-F10 melanoma cells; assay: MTT cytotoxicity in HEK cells transfected with melanosomal enzymes and in B16-F10 cells (FIG. 3); type: cell-based; conditions: 250 μM, 24 h, MTT assay
Description: Transfected HEK cells and B16-F10 melanoma cells were exposed to 250 μM of MBEH for 24 h before cytotoxicity was measured via MTT assay.

M14 melanoma cells = assay: Change in viable cell numbers of M14 melanoma cells over the treatment period (FIG. 9); type: cell-based; conditions: 100 μM, 24 h, untreated cells gained 96% viable cells
Description: FIG. 9. First panel: Single cell functional proteomics data indicates functional heterogeneity when comparing the effects of free and nanoparticulate MBEH on cellular functions among live cells. Adherent M14 melanoma cells were incubated for 24 h with 100 μM of free MBEH (a), nanoparticulate monobenzone with lauroyl MBEH-loaded liposomes (b), MBEH-loaded MOF nanoparticles (c) or vehicle alone (d) before being harvested and loaded into individual wells of the respective Isocode chips (˜30,000 cells/sample) to measure the presence of phosphorylated proteins among individual, live cells by IsoPlexis functional proteomics. […] The decreases in cell-proliferation pathways are even more than those observed in cells that have been exposed to the free MBEH. The individual phosphoproteins measured (results are shown for ˜300 live, single cells per group) are categorized as shown in the legend. The most profound effect on cell signaling was found in presence of long-tailed MBEH. Over the treatment period, untreated cells gained 96% viable cells, whereas cell numbers were reduced by 45, 29 and 1% respectively in response to the free drug, MBEH-loaded MOFs and liposomes loaded with lauroyl MBEH, respectively. Functional heterogeneity among treatments was driven by PARP, P-eIF4α and ribosomal P-S6. Second panel: Viability changes of M14 melanoma cells shown between 24-48 h of treatment. […]

[4] = cited from earlier work

With `Oc1ccc(OCc2ccccc2)cc1` [MBEH, monobenzyl ether of hydroquinone] the “TRP-1+ melanocytes in skin” value [1] was “undetectable”, the IC50 (B16 melanoma cells) was about 500 µM and the “number of cytotoxic (CD8) T cells in tumors, enhancement after exposure” value (B16-F10 tumors) was 4.7 fold. For the same molecule, the “tumor growth (tumor volumes)” value [2] was “prevents tumor growth”, the “cytotoxicity mediated by melanosomal enzymes” value [3] was “All enzymes but MART-1 can mediate cytotoxicity” and the “cell numbers reduced over the treatment period” value (M14 melanoma cells) was 45%. For the same molecule, the solubility in water [4] was “highly insoluble in water”.
